Measured values: patent US7371773B2, “Breast cancer resistance protein (BCRP) inhibitor” (Kabushiki Kaisha Yakult Honsha, priority 2003, dated 2008)
Values after ≈ are worked out from the molar mass of the structure shown. Structures can show the parent of a compound that is named as a salt. Where two headings read alike, the source gives them in different places. One block for each compound: values may come before it.

How the values were obtained:
A549/SN-38-4 cell line = test: Overcoming anticancer drug resistance of A549/SN-38-4 cell line; assay type: cell-based, human; details: for EC50: Homo sapiens, A549, read-out: Resistance overcoming effect EC50
Procedure: The effect of a diphenylacrylonitrile derivative on BCRP-mediated anticancer drug resistance was studied by use of the human lung cancer A549/SN-38-4 cell line, which had acquired anticancer drug resistance through BCRP expression. The human lung cancer A549 cell line or the A549/SN-38-4 cell line was suspended in 10% FBS/Ham's F-12, and the resultant suspension was inoculated into a 96-well microplate, followed by culturing at 5% CO2 and 37° C. overnight (2×10^3 cells/50 μL/well). Thereafter, a 10% FBS/Ham's F-12 solution (25 μL) containing a diphenylacrylonitrile derivative and SN-38 or mitoxantrone was added to each of the wells, followed by culturing at 5% CO2 and 37° C. for 48 hours. After completion of culturing, the number of viable cells was counted by use of TetraColor ONE according to the attached instruction manual. […] The greater the relative resistance value, the higher the level of acquired resistance.

MES-SA/Dx5 cell line = test: Effect on multidrug resistance of MES-SA/Dx5 cell line; assay type: cell-based; details: Homo sapiens; paclitaxel resistance, MES-SA/Dx5 (P-glycoprotein overexpression), 48 hours; read-out: Resistance overcoming effect EC50
Procedure: Human uterine cancer MES-SA cell line or MES-SA/Dx5 cell line which had acquired multidrug resistance through overexpression of P-glycoprotein [Cancer Res. 45, 4091-4096 (1985)] was suspended in 10% FBS/DMEM, and the resultant suspension was inoculated into a 96-well microplate, followed by culturing at 5% CO2 and 37° C. overnight (3×10^3 cells/50 μL/well). Thereafter, a solution of a diphenylacrylonitrile derivative and paclitaxel in 10% FBS/DMEM (25 μL) was added to each of the wells, followed by culturing at 5% CO2 and 37° C. for 48 hours. After completion of culturing, the number of viable cells was counted by use of TetraColor ONE according to the attached instruction manual.

P388/BCRP cell line = test: Overcoming anticancer drug resistance in vivo (survival of tumor-implanted mice); set-up: species or system CDF1 mice; details: compound 100 mg/kg/day + CPT-11 20 mg/kg/day i.p. once a day, 10 administrations
[1] = SN-38 resistance, concentration for 50% reduction of relative resistance value, 48 hours

Compound: COc1ccc(/C(C#N)=C/c2ccc(O)cc2)cc1OC [Compound 1, (Z)-2-(3,4-dimethoxyphenyl)-3-(4-hydroxyphenyl)acrylonitrile]
EC50 (A549/SN-38-4 cell line; [1]): 0.051 µg/mL (≈ 0.181 µM)
EC50 (MES-SA/Dx5 cell line): > 1 µg/mL
Survival days Mean ± S.D. (P388/BCRP cell line; Table 6): 19.4 ± 1.1 days
T/C (P388/BCRP cell line; Table 6): 162%

Compound: COc1ccc(/C(C#N)=C/c2ccc(OC(=O)N3CCC(N4CCCCC4)CC3)cc2)cc1OC [Compound 2, 4-[(Z)-2-cyano-2-(3,4-dimethoxy-phenyl)-vinyl]-phenyl [1,4′]bipiperidinyl-1′-carboxylate]
EC50 (A549/SN-38-4 cell line; [1]): 0.41 µg/mL (≈ 0.862 µM)
EC50 (MES-SA/Dx5 cell line): > 1 µg/mL

Compound: COc1ccc(/C(C#N)=C/c2ccc(OC(C)=O)cc2)cc1OC [Compound 3, 4-[(Z)-2-cyano-2-(3,4-dimethoxy-phenyl)-vinyl]-phenyl acetate]
EC50 (A549/SN-38-4 cell line; [1]): 0.02 µg/mL
EC50 (MES-SA/Dx5 cell line): > 1 µg/mL
Survival days Mean ± S.D. (P388/BCRP cell line; Table 6): 19.8 ± 0.8 days
T/C (P388/BCRP cell line; Table 6): 165%

Compound: COCCOCOc1ccc(/C=C(\C#N)c2ccc(OC)c(OC)c2)cc1 [Compound 4, (Z)-2-(3,4-dimethoxy-phenyl)-3-[4-(2-methoxy-ethoxymethoxy)-phenyl]-acrylonitrile]
EC50 (A549/SN-38-4 cell line; [1]): 0.079 µg/mL (≈ 0.214 µM)
EC50 (MES-SA/Dx5 cell line): > 1 µg/mL

Compound: COc1ccc(/C(C#N)=C/c2ccccc2O)cc1OC [Compound 6, (Z)-2-(3,4-dimethoxy-phenyl)-3-(2-hydroxy-phenyl)-acrylonitrile]
EC50 (A549/SN-38-4 cell line; [1]): 0.098 µg/mL (≈ 0.348 µM)
EC50 (MES-SA/Dx5 cell line): > 1 µg/mL

Compound: COc1ccc(/C(C#N)=C/c2cccc(O)c2OC)cc1OC [Compound 9, (Z)-2-(3,4-dimethoxy-phenyl)-3-(3-hydroxy-2-methoxy-phenyl)-acrylonitrile]
EC50 (A549/SN-38-4 cell line; [1]): 0.028 µg/mL (≈ 0.0899 µM)
EC50 (MES-SA/Dx5 cell line): > 1 µg/mL

Compound: COc1ccc(/C(C#N)=C/c2cc(C)c(O)c(C)c2)cc1OC [Compound 10, (Z)-2-(3,4-dimethoxy-phenyl)-3-(4-hydroxy-3,5-dimethyl-phenyl)-acrylonitrile]
EC50 (A549/SN-38-4 cell line; [1]): 0.023 µg/mL (≈ 0.0743 µM)
EC50 (MES-SA/Dx5 cell line): > 1 µg/mL

Compound: COc1ccc(/C(C#N)=C/c2ccc(Br)cc2)cc1OC [Compound 12, (Z)-3-(4-bromo-phenyl)-2-(3,4-dimethoxy-phenyl)-acrylonitrile]
EC50 (A549/SN-38-4 cell line; [1]): 0.28 µg/mL (≈ 0.813 µM)
EC50 (MES-SA/Dx5 cell line): > 1 µg/mL

Compound: CCCCOc1ccc(/C(C#N)=C/c2ccc(O)cc2)cc1 [Compound 14, (Z)-2-(4-butoxy-phenyl)-3-(4-hydroxy-phenyl)-acrylonitrile]
EC50 (A549/SN-38-4 cell line; [1]): 0.047 µg/mL (≈ 0.16 µM)
EC50 (MES-SA/Dx5 cell line): > 1 µg/mL

Compound: COc1cc(/C(C#N)=C/c2ccc(O)cc2)cc(OC)c1OC [Compound 15, (Z)-3-(4-hydroxy-phenyl)-2-(3,4,5-trimethoxy-phenyl)-acrylonitrile]
EC50 (A549/SN-38-4 cell line; [1]): 0.023 µg/mL (≈ 0.0739 µM)
EC50 (MES-SA/Dx5 cell line): > 1 µg/mL

Compound: COc1ccc(/C(C#N)=C/c2ccc([N+](=O)[O-])c(O)c2)cc1OC [Compound 53, (Z)-2-(3,4-dimethoxy-phenyl)-3-(3-hydroxy-4-nitro-phenyl)-acrylonitrile]
EC50 (A549/SN-38-4 cell line; [1]): 0.048 µg/mL (≈ 0.147 µM)

Compound: COc1ccc(/C(C#N)=C/c2cccc(F)c2O)cc1OC [Compound 55, (Z)-2-(3,4-dimethoxy-phenyl)-3-(3-fluoro-2-hydroxy-phenyl)-acrylonitrile]
EC50 (A549/SN-38-4 cell line; [1]): 0.015 µg/mL (≈ 0.0501 µM)

Compound: COc1ccc(/C=C(\C#N)c2ccc(OC)c(OC)c2)cc1OC [Compound 56, (Z)-2,3-bis-(3,4-dimethoxy-phenyl)-acrylonitrile]
EC50 (A549/SN-38-4 cell line; [1]): 0.016 µg/mL (≈ 0.0492 µM)

Compound: COc1ccc(/C(C#N)=C/c2cccc(N)c2)cc1OC [Compound 57, (Z)-3-(3-amino-phenyl)-2-(3,4-dimethoxy-phenyl)-acrylonitrile]
EC50 (A549/SN-38-4 cell line; [1]): 0.037 µg/mL (≈ 0.132 µM)
Survival days Mean ± S.D. (P388/BCRP cell line; Table 7): 18.8 ± 0.8 days
T/C (P388/BCRP cell line; Table 7): 145%

Compound: COc1ccc(/C(C#N)=C/c2cccc(N)c2)cc1OC [Compound 68, (Z)-3-(3-amino-phenyl)-2-(3,4-dimethoxy-phenyl)-acrylonitrile hydrochloride]
Resistance overcoming effect EC50 (A549/SN-38-4 cell line): 0.048 µg/mL
Survival days Mean ± S.D. (P388/BCRP cell line; Table 7, hydrochloride): 18.8 ± 2.9 days

Compound: COc1ccc(/C(C#N)=C/c2ccc(OP(=O)(O)O)cc2)cc1OC [Compound 70, mono-{4-[(Z)-2-cyano-2-(3,4-dimethoxy-phenyl)-vinyl]-phenyl} phosphate]
Resistance overcoming effect EC50 (A549/SN-38-4 cell line): 0.24 µg/mL

Compound: COc1ccc(/C(C#N)=C/c2ccc(OP(=O)(O)O)c(OC)c2)cc1OC [Compound 71, mono-{4-[(Z)-2-cyano-2-(3,4-dimethoxy-phenyl)-vinyl]-2-methoxy-phenyl} phosphate]
Resistance overcoming effect EC50 (A549/SN-38-4 cell line): 0.29 µg/mL

Compound: (Z)-2-(3,4-dimethoxyphenyl)-3-(4-β-D-glucopyranosyl-phenyl)-acrylonitrile [Compound 44]
Resistance overcoming effect EC50 (A549/SN-38-4 cell line): 0.024 µg/mL

Compound: (Z)-2-(3,4-dimethoxyphenyl)-3-(4-β-maltosyl-phenyl)-acrylonitrile [Compound 51]
Resistance overcoming effect EC50 (A549/SN-38-4 cell line; [1]): 0.045 µg/mL

Compound: (Z)-2-(3,4-dimethoxyphenyl)-3-(4-β-maltotriosyl-phenyl)-acrylonitrile [Compound 54]
Resistance overcoming effect EC50 (A549/SN-38-4 cell line; [1]): 0.26 µg/mL

Compound: (Z)-2-(3,4-dimethoxyphenyl)-3-[4-(6-phospho-β-D-glucopyranosyl)-phenyl]-acrylonitrile [Compound 73]
Resistance overcoming effect EC50 (A549/SN-38-4 cell line): 1.0 µg/mL

Compound: (Z)-2-(3,4-dimethoxyphenyl)-3-[4-(6-phospho-β-D-glucopyranosyl)-phenyl]-acrylonitrile sodium salt [Compound 75]
Resistance overcoming effect EC50 (A549/SN-38-4 cell line; [1]): >1.0 µg/mL

Results, then the compound that gave them:

EC50 (A549/SN-38-4 cell line; [1]): 0.033 µg/mL (≈ 0.0852 µM)
Compound: COCCOCOc1ccc(/C=C(\C#N)c2ccc(OC)c(OC)c2)cc1F [Compound 58, (Z)-2-(3,4-dimethoxy-phenyl)-3-[3-fluoro-4-(2-methoxy-ethoxymethoxy)-phenyl]-acrylonitrile]

EC50 (A549/SN-38-4 cell line; [1]): 0.043 µg/mL (≈ 0.144 µM)
Compound: COc1ccc(/C(C#N)=C/c2ccc(O)c(F)c2)cc1OC [Compound 59, (Z)-2-(3,4-dimethoxy-phenyl)-3-(3-fluoro-4-hydroxy-phenyl)-acrylonitrile]

EC50 (A549/SN-38-4 cell line; [1]): 0.024 µg/mL
Compound: COc1ccc(/C=C(\C#N)c2ccc(OC(C)=O)cc2)cc1OC [Compound 61, 4-[(Z)-1-cyano-2-(3,4-dimethoxy-phenyl)-vinyl]phenyl acetate]

EC50 (A549/SN-38-4 cell line; [1]): 0.11 µg/mL (≈ 0.375 µM)
Compound: COc1ccc(/C(C#N)=C/c2ccc(C=O)cc2)cc1OC [Compound 62, (Z)-2-(3,4-dimethoxy-phenyl)-3-(4-formyl-phenyl)-acrylonitrile]

EC50 (A549/SN-38-4 cell line; [1]): 0.024 µg/mL
Compound: CCOc1cc(/C(C#N)=C/c2ccc(OC)c(OC)c2)ccc1OC(C)=O [Compound 63, 4-[(Z)-1-cyano-2-(3,4-dimethoxy-phenyl)-vinyl]-2-ethoxy-phenyl acetate]

EC50 (A549/SN-38-4 cell line; [1]): 0.01 µg/mL
Compound: COc1ccc(/C=C(\C#N)c2ccc(OC(C)=O)c(F)c2)cc1OC [Compound 64, 4-[(Z)-1-cyano-2-(3,4-dimethoxy-phenyl)-vinyl]-2-fluoro-phenyl acetate]

EC50 (A549/SN-38-4 cell line; [1]): 0.2 µg/mL
Compound: COc1cc(/C(C#N)=C/c2ccc(OC(C)=O)cc2)cc(OC)c1OC [Compound 65, 4-[(Z)-2-cyano-2-(3,4,5-trimethoxy-phenyl)-vinyl]-phenyl acetate]

EC50 (A549/SN-38-4 cell line; [1]): 0.71 µg/mL (≈ 1.62 µM)
Compound: CCOC(=O)CCCCCCOc1ccc(/C=C(\C#N)c2ccc(OC)c(OC)c2)cc1 [Compound 66, ethyl 7-[4-[(Z)-2-cyano-2-(3,4-dimethoxy-phenyl)-vinyl]-phenoxy]-heptanoate]

EC50 (A549/SN-38-4 cell line; [1]): 0.065 µg/mL (≈ 0.134 µM)
Compound: COc1ccc(/C=C(\C#N)c2ccc(OC(=O)CCCCCCCBr)cc2)cc1OC [Compound 67, 4-[(Z)-1-cyano-2-(3,4-dimethoxy-phenyl)-vinyl]-phenyl 8-bromo-octanoate]

EC50 (A549/SN-38-4 cell line; [1]): 0.028 µg/mL (≈ 0.0869 µM)
Compound: COc1ccc(C(C#N)=Cc2cccc(NC(C)=O)c2)cc1OC [Compound 72, N-[3-[2-cyano-2-(3,4-dimethoxy-phenyl)-vinyl]-phenyl]-acetamide]

Resistance overcoming effect EC50 (A549/SN-38-4 cell line; [1]): >1.0 µg/mL
Compound: CCN(CC)CC.COc1ccc(/C(C#N)=C/c2ccc(OS(=O)(=O)O)cc2)cc1OC [Compound 74, sulphoric acid mono-{4-[(Z)-2-cyano-2-(3,4-dimethoxy-phenyl)-vinyl]-phenyl} ester triethylammonium salt]

EC50 (A549/SN-38-4 cell line; [1]): 0.82 µg/mL (≈ 2.51 µM)
Compound: COc1ccc(/C(C#N)=C/c2cc([N+](=O)[O-])ccc2O)cc1OC [Compound 76, (Z)-2-(3,4-dimethoxy-phenyl)-3-(2-hydroxy-5-nitro-phenyl)-acrylonitrile]

EC50 (A549/SN-38-4 cell line; [1]): 0.3 µg/mL (≈ 0.914 µM)
Compound: COc1ccc(/C(C#N)=C/c2ccc(F)c([N+](=O)[O-])c2)cc1OC [Compound 77, (Z)-2-(3,4-dimethoxy-phenyl)-3-(4-fluoro-3-nitro-phenyl)-acrylonitrile]

EC50 (A549/SN-38-4 cell line; [1]): 0.053 µg/mL (≈ 0.155 µM)
Compound: COc1ccc(/C(C#N)=C/c2cc(O)c(OC)c(OC)c2)cc1OC [Compound 78, (Z)-2-(3,4-dimethoxy-phenyl)-3-(3-hydroxy-4,5-dimethoxy-phenyl)-acrylonitrile]

EC50 (A549/SN-38-4 cell line; [1]): 0.017 µg/mL (≈ 0.0498 µM)
Compound: COc1ccc(/C(C#N)=C/c2cc(OC)c(O)c(OC)c2)cc1OC [Compound 79, (Z)-2-(3,4-dimethoxy-phenyl)-3-(4-hydroxy-3,5-dimethoxy-phenyl)-acrylonitrile]
